{"source": "patent US8710088B2", "about": "“Pharmaceutical and diagnostic compositions for use in the treatment and diagnosis of neurodegenerative diseases or amyloid diseases” (Max-Delbruck-Centrum fur Molekulare Medizin, priority 2004, dated 2014)", "key": {"neuroblastoma cells": {"test_system": "neuroblastoma cells", "conditions": "neuroblastoma cells damaged with amyloid β-peptide; cited from earlier work"}, "alpha-synuclein": {"test_system": "alpha-synuclein", "test": "alpha-synuclein amyloid fibril formation, electron microscopy", "assay_type": "biochemical", "conditions": "wild type protein or mutant (A53T)", "excerpt": "For this purpose, the wild type protein or a mutant (A53T) was used."}, "[1]": {"target": "T1, mutant huntingtin (GST fusion protein GST-HDQ51) (Homo sapiens, UniProt P42858, INS38QQQQQQQQQQQQQQQQQQQQQQQQQQQQQQ)", "T1 construct": "GST (N)", "T1 sequence (P42858 with tags, fused parts or gaps with the stated changes limits assumed)": "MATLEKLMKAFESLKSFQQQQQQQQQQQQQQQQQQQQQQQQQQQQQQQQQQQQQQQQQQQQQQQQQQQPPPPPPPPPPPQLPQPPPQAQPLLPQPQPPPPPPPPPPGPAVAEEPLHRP", "test": "in vitro aggregation of mutant huntingtin, membrane filter test", "assay_type": "biochemical", "conditions": "membrane filter method", "protocol": "(§1) As in the tests described by Heiser et al. (2002), the protein was used for aggregation tests to which either only solvent or solvent and the chemical agent in question was added. Aliquots of these batches were examined by means of the membrane filter test and electron microscopy.\n(§2) As in the tests described by Heiser et al. (2002), the protein was used for aggregation tests to which either only solvent or solvent and 7-amino-8-(2,4-dihydroxy-6-methyl-phenyl)-1,9-dimethyl-phenoxazine-3-one was added. Aliquots of these batches were examined by means of the membrane filter test (FIG. 1B) and electron microscopy (FIGS. 1E and 1F)."}, "[2]": {"test_system": "ataxin-3 deletion construct (aa 221-360) with 71 glutamines", "test": "ataxin-3 aggregation in COS-1 cells, filtration method", "assay_type": "cell-based", "conditions": "40 h, membrane filter method", "protocol": "For some compounds, a positive effect could be observed in another cell culture model of Huntington's chorea and a cell culture model of spinocerebellar ataxia (type 3). A test system based on the aggregation of an N-terminal ataxin-3 deletion construct (aa 221-360) with 71 glutamines in COS-1 cells was developed to isolate substances inhibiting the ataxin-3 aggregation. The cells were transiently transfected with the ataxin-3 expression construct and incubated in plates with 96 perforations with the added substance at 37° C. in an incubator. After 40 h the cells were harvested and lysated. The lysates were denatured in the presence of 2% SDS and analyzed using the filtration method."}, "huntingtin": {"target": "T2, huntingtin (Homo sapiens, UniProt P42858, INS38QQQQQQQQQQQQQQQQQQQQQQQQQQQQQQ)", "T2 construct": "expressed in transfected cells; host or cells: COS1 cells, transient transfection", "T2 sequence (P42858 with tags, fused parts or gaps with the stated changes limits assumed)": "as the sequence (P42858 with tags, fused parts or gaps with the stated changes limits assumed) above", "test": "cell culture model of Huntington's chorea: COS1 cells transfected with pTL1-CAG51, membrane filter test", "assay_type": "cell-based", "conditions": "40-44 h, membrane filter method", "protocol": "(§3) The compounds were then tested in several cell culture models of polyglutamine diseases, inter alia Huntington's chorea. For this purpose, COS1 cells were transiently transfected with the plasmid pTL1-CAG51 already described above (Sittler, A., Walter, S., Wedemeyer, N., Hasenbank, R., Scherzinger, E., Eickhoff, H., Bates, G. P., Lehrach, H. and Wanker, E. E. (1998) Mol Cell 2, 427-36) and cultivated for 44 h in the presence of solvents or the chemical agents. Subsequently, the amount of aggregate was determined with the help of the membrane filter test as described by Heiser et al. (2002). […] The latter could be deduced from the total amount of protein in the cell lysate (FIG. 2B) which was determined with the help of cell extracts.\n7-Amino-8-(2,4-dihydroxy-6-methyl-phenyl)-1,9-dimethyl-phenoxazine-3-one was then tested in a cell culture model of Huntington's chorea. For this purpose, COS1 cells were transiently transfected with the plasmid pTL1-CAG51 already described above (Sittler, A., Walter, S., Wedemeyer, N., Hasenbank, R., Scherzinger, E., Eickhoff, H., Bates, G. P., Lehrach, H. and Wanker, E. E. (1998) Mol Cell 2, 427-36) and cultivated for 40-44 h in the presence of solvents or 7-amino-8-(2,4-dihydroxy-6-methyl-phenyl)-1,9-dimethyl-phenoxazine-3-one. Subsequently, the amount of aggregate was determined with the help of the membrane filter test as described by Heiser et al. (2002). […] The latter could be deduced from the total amount of protein (FIG. 2B) which was determined with the help of cell extracts."}, "amyloid-beta fibrils": {"target": "amyloid-beta fibrils (Homo sapiens, UniProt P05067)", "sequence (P05067 672-713 limits assumed)": "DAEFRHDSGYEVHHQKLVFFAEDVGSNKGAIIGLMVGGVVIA", "test": "binding to amyloid-beta aggregates located on a cellulose acetate membrane", "conditions": "colored substances", "excerpt": "FIG. 16: Binding to amyloid-beta aggregates located on a cellulose acetate membrane"}, "[3]": {"test_system": "neuronally differentiated PC12 cells", "test": "toxicity of extracellular Aβ1-42 in neuronally differentiated PC12 cells, MTT test", "assay_type": "cell-based", "conditions": "48 h", "protocol": "(§4) Analogously, the compounds were also examined in aggregation assays with the amyloid β-peptide Aβ1-42(E22Q), which is a particularly rapidly aggregating variant of amyloid β, as well as with non-mutated (wild type) Aβ1-42. For this purpose, the peptide was incubated at a concentration of 15 μM in a phosphate buffer with a physiological pH value of 7.4 for 42 h at 37° C. and subsequently, aliquots were examined by means of the membrane filter method (Figure) or electron microscopy (Figures) as well. […] Cell viability measurements were carried out in neuronally differentiated PC12 cells to which beta-amyloid and the substances to be tested were added extracellularly in order to examine whether the compounds are able to reduce toxicity caused by amyloid-beta. After 48 h the viability of the cells (approximately corresponds to the number of vital cells) was measured."}, "wild type Aβ1-42": {"target": "T3, wild type Aβ1-42 (Homo sapiens, UniProt P05067)", "T3 construct": "non-mutated (wild type) Aβ1-42", "T3 sequence (P05067 672-713 limits assumed)": "as above", "test": "aggregation assay with wild type Aβ1-42, membrane filter method", "assay_type": "biochemical", "conditions": "peptide 15 μM, pH 7.4, 42 h, 37° C.", "protocol": "as §4"}, "[4]": {"target": "T1, mutant huntingtin (GST fusion protein GST-HDQ51)", "test": "in vitro amyloid fibril formation of huntingtin, electron microscopy", "assay_type": "biochemical", "protocol": "as §1, §2"}, "COS1 cells": {"test_system": "COS1 cells", "test": "total amount of protein in the cell lysate (toxicity) in the COS1 model", "assay_type": "cell-based", "protocol": "as §3\n7-Amino-8-(2,4-dihydroxy-6-methyl-phenyl)-1,9-dimethyl-phenoxazine-3-one was then tested in a cell culture model of Huntington's chorea. […] Subsequently, the amount of aggregate was determined with the help of the membrane filter test as described by Heiser et al. (2002). […] The latter could be deduced from the total amount of protein (FIG. 2B) which was determined with the help of cell extracts."}, "[5]": {"target": "T4, amyloid β-peptide Aβ1-42[E22Q] (Homo sapiens, UniProt P05067, E693Q)", "T4 construct": "the amyloid β-peptide Aβ1-42[E22Q]", "T4 sequence (P05067 672-713 E693Q)": "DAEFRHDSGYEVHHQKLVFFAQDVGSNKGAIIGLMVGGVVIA", "test": "aggregation assay with Aβ1-42[E22Q], membrane filter method or electron microscopy", "assay_type": "biochemical", "conditions": "15 μM peptide, pH 7.4, 42 h, 37° C.", "protocol": "as §4\nAnalogously, the compound was also examined in aggregation assays with the amyloid β-peptide Aβ1-42[E22Q] which is a particularly rapidly aggregating variant of amyloid β. For this purpose, the peptide was incubated at a concentration of 15 μM in a phosphate buffer with a physiological pH value of 7.4 for 42 h at 37° C. and subsequently, aliquots were examined by means of the membrane filter method (FIG. 1A) or electron microscopy (FIGS. 1C and 1D) as well."}, "caspases-3/-7": {"test_system": "caspases-3/-7", "test": "caspase activity in the COS1 model of Huntington's chorea, fluorogenic substrate", "assay_type": "cell-based", "conditions": "fluorometric", "protocol": "(§5) In addition, it was examined in this cell culture model of Huntington's chorea whether the substances tested substances can cause cell damage by initiating apoptotic processes. For this purpose, the activity of two caspases (caspases-3/-7) was determined fluorometrically after addition of a fluorogenic substrate.\nas §5, with “7-amino-8-(2,4-dihydroxy-6-methyl-phenyl)-1,9-dimethyl-phenoxazine-3-one” for “the substances tested substances”, “(caspases 3 and 7)” for “(caspases-3/-7)”"}}}
{"compound": "O=C(O[C@@H]1Cc2c(O)cc(O)cc2O[C@@H]1c1cc(O)c(O)c(O)c1)c1cc(O)c(O)c(O)c1", "note": "[EGCG, (−)-Epigallocatechin gallate]", "values": [{"measurement": "neuroprotective effect", "setting": "neuroblastoma cells", "result": "neuroprotective effect"}, {"measurement": "Inhibition of the aggregation of alpha-synuclein (amyloid fibrils)", "setting": "alpha-synuclein", "result": "Inhibition of the aggregation"}]}
{"compound": "Oc1cc(O)c2c(c1)O[C@@H](c1cc(O)c(O)c(O)c1)[C@H](O)C2", "note": "[GC, (−)-Gallocatechin]", "values": [{"measurement": "Inhibition of the aggregation of huntingtin (Exon-1) (SDS-insoluble aggregates)", "setting": "[1]", "result": "Inhibition of the aggregation"}, {"measurement": "Inhibition of the aggregation of alpha-synuclein (amyloid fibrils)", "setting": "alpha-synuclein", "result": "Inhibition of the aggregation"}]}
{"compound": "CC(=O)N1CCN(c2ccc(OC(=O)Cc3cccs3)cc2)CC1", "note": "[Thiophene-2-yl-acetic acid 4-(4-acetyl-piperazine-1-yl)-phenyl ester]", "values": [{"measurement": "Inhibition of the aggregation of ataxin-3 in mammalian cells", "setting": "[2]", "result": "Inhibition of the aggregation"}, {"measurement": "Inhibition of the aggregation of huntingtin in mammalian cells", "setting": "huntingtin", "result": "Inhibition of the aggregation"}]}
{"compound": "alpha-amino-orcein", "values": [{"measurement": "direct binding to amyloid-beta fibrils", "setting": "amyloid-beta fibrils", "result": "bind directly to amyloid-beta fibrils"}, {"measurement": "Inhibition of the aggregation of huntingtin in mammalian cells", "setting": "huntingtin", "result": "Inhibition of the aggregation"}, {"measurement": "Inhibition of toxicity of extracellular wild type Aβ1-42", "setting": "[3]", "result": "Inhibition of the toxicity"}, {"measurement": "Inhibition of the aggregation of wild type Aβ1-42 (SDS-insoluble aggregates)", "setting": "wild type Aβ1-42", "result": "Inhibition of the aggregation"}]}
{"compound": "Nc1cccc(C2=Nc3cccc4cccc(c34)N2)c1", "note": "[3-(1H-perimidine-2-yl)-phenylamine]", "values": [{"measurement": "Inhibition of toxicity of extracellular wild type Aβ1-42", "setting": "[3]", "result": "Inhibition of toxicity"}, {"measurement": "Inhibition of the aggregation of wild type Aβ1-42 (SDS-insoluble aggregates)", "setting": "wild type Aβ1-42", "result": "Inhibition of the aggregation"}]}
{"compound": "Oc1cc(O)c2c(c1)O[C@H](c1cc(O)c(O)c(O)c1)[C@H](O)C2", "note": "[EGC, (−)-Epigallocatechin]", "values": [{"measurement": "Inhibition of the aggregation of huntingtin (Exon-1) (SDS-insoluble aggregates)", "setting": "[1]", "result": "Inhibition of the aggregation"}, {"measurement": "Inhibition of the aggregation of alpha-synuclein (amyloid fibrils)", "setting": "alpha-synuclein", "result": "Inhibition of the aggregation"}]}
{"compound": "c1cc2c3c(cccc3c1)NC(c1ccncc1)N2", "note": "[2-pyridine-4-yl-2,3-dihydro-1H-perimidine]", "values": [{"measurement": "Inhibition of the amyloid fibril formation of huntingtin (Exon-1)", "setting": "[4]", "result": "Inhibition of the amyloid fibril formation"}]}
{"compound": "Cc1cc(=O)cc2oc3cc(N)c(-c4c(C)cc(O)cc4O)c(C)c3nc1-2", "note": "[7-amino-8-(2,4-dihydroxy-6-methyl-phenyl)-1,9-dimethyl-phenoxazine-3-one]", "values": [{"measurement": "Inhibition of the aggregation of huntingtin (Exon-1) (SDS-insoluble aggregates)", "setting": "[1]", "result": "aggregation inhibiting effect"}, {"measurement": "increase of total protein content", "setting": "COS1 cells; COS1 cells cultivated in presence of compound", "result": "~20", "unit": "%"}, {"measurement": "toxic effect, deduced from total amount of protein", "setting": "COS1 cells; COS1 cells, at the concentrations used", "result": "without having a toxic effect"}, {"measurement": "Inhibition of the aggregation of huntingtin in mammalian cells", "setting": "huntingtin", "result": "aggregation inhibiting influence"}, {"measurement": "Inhibition of the aggregation of amyloid β-peptide Aβ1-42[E22Q]", "setting": "[5]", "result": "effectively inhibits the aggregation"}, {"measurement": "caspase activity (caspases 3 and 7)", "setting": "caspases-3/-7", "result": "caspase activity was reduced"}, {"measurement": "Inhibition of the amyloid fibril formation of huntingtin (Exon-1)", "setting": "[4]", "result": "aggregation inhibiting effect"}]}
